Measurements published in patent publication US11649235B2, “Pan-tropic entry inhibitors” (Emory University, priority 2018, dated 2023).
pEC50, pIC50: −log10 of the molar value. Where two headings read alike, the source gives them in different places.

Key:
HIV = settings: in vitro resistance studies; cited from earlier work
HIV-1IIIB = test: HIV MAGI assay, HIV-1IIIB; type: cell-based; settings: Human immunodeficiency virus 1, MAGI
Experimental: (§1) HIV-1 and MAGI Tropism assays can be used to establish activity/cytotoxicity and synergy studies and ADME profiles of compounds are evaluated using in vitro assays such as CYP2D6/3A4 assays and metabolic stability in human and mouse liver microsomes (See Tables 2 and 3).

HIV-1BaL = test: HIV MAGI assay, HIV-1BaL; type: cell-based; settings: Human immunodeficiency virus 1, MAGI
Experimental: as §1

MAGI [1] = test: Cytotoxicity in MAGI HIV-1IIIB assay; type: cell-based; settings: Table 3
Experimental: as §1

MAGI [2] = test: Cytotoxicity in MAGI HIV-1BaL assay; type: cell-based; settings: Table 3; head prints TC90
Experimental: as §1

CYP2D6 = CYP2D6 (Homo sapiens (Human), UniProt P10635); test: Recombinant CYP inhibition assay (fluorometric), CYP2D6; type: in vitro ADME
Description: (§2) Recombinant CYP Inhibition Assay: In a drug discovery program, a rapid screening for cyctochrome P450 (CYP450) inhibitors is a part of the existing standard for avoiding the development of drugs likely to give clinical pharmacokinetic drug-drug interactions and associated toxicities. A microtiter plate-based, direct fluorometric assay for the activities of the principal human drug-metabolizing enzymes, CYP2D6 and CYP3A4 can be used and these assays are rapid and compatible with existing high-throughput assay instrumentation.
(§3) Fluorometric Enzyme Inhibition Assays: Test compounds were dissolved in 100% organic solvent (CH3CN or DMSO) to make 30 mM stock solutions. […] A 100 mM potassium phosphate buffer was prepared and adjusted to pH 7.4. The 30 mM stock solution of test and control compounds (1 mM) were further diluted in phosphate buffer (100 mM, pH 7.4) to ensure the final organic solvent content was <0.2% in the reaction. In a separate falcon tube, a 2× enzyme/substrate (E/S) solution was prepared in phosphate buffer. The final concentration of CYP2D6 (Corning) and AMMC was 10 nM and 4 μM, and CYP3A4 (Corning) and BFC was 20 nM and 40 μM, respectively. In a separate falcon tube, a 2× NADPH regenerating system (NRS) was prepared in phosphate buffer. The final concentration for each component in the assay was as follows: • CYP2D6 assay=0.008 mM NADPH, 3.3 mM glucose 6-phosphate, 0.4 U of glucose-6-phosphate dehydrogenase/mL • CYP3A4 assay=2.45 mM NADPH, 24.7 mM glucose 6-phosphate, 1.25 U of glucose-6-phosphate dehydrogenase/mL
(§4) Both enzymatic assays were conducted in a 96-well microtiter plate (Black, Corning Costar) with a final volume of 100 μL. Preparation of the plate began with the addition of 74 μL of the E/S in the first well, and 50 μL to all subsequent wells (from 2-11). The test compounds (1 μL) were dissolved in the first well to give the first row a final volume of 75 μL. A 1:3 serial dilution of the test compound was conducted by removing 25 μL from the first well and diluting it with the second and so forth until the tenth row. Final concentrations yielded a range from 300 μM-0.01 μM. Well 11 contained no enzyme, and well 12 contained no inhibitor. Both were used as controls for background fluorescence. The plate was incubated for 10 min at 37° C. for CYP2D6, and 30 mins for CYP3A4. After incubation, the reaction was initiated by the addition of 50 μL of the 2× NRS to each well.
(§5) Immediately (within 1 min) the fluorescence was measured using a microplate reader (KC4, BioTek). CYP2D6 was monitored at Ex/Em=410/460 nm, and CYP3A4 monitored at Ex/Em=410/538 nm in kinetic mode that scanned every 5 min for 60 mins. Data was exported and corrected for background noise by subtracting the blank from the mean value of all other columns. […]

CYP3A4 = CYP3A4 (Homo sapiens (Human), UniProt P08684); test: Recombinant CYP inhibition assay (fluorometric), CYP3A4; type: in vitro ADME
Description: as §2, §3, §4, §5

[3] = Experimental: Human Liver Microsomes: Pooled mixed gender human liver microsomes at a concentration of 20 mg/mL were purchased from XenoTech (Kansas City, Kans.). The vials of microsomes were stored at −80° C. and thawed on ice before each experiment. The microsomes were diluted to 1 mg/mL with 100 mM potassium phosphate buffer (pH 7.4).
Experimental Conditions: Test compounds were weighed and dissolved in 100% acetonitrile to make 2 mM stock solutions. […] The 2 mM stock solution of test and control compounds were further diluted in sodium phosphate buffer (100 mM, pH 7.4) to 50 μM to ensure the acetonitrile content was <0.2%.
The liver microsome assay was prepared in a 1.5 mL Eppendorf tube (Fisher Scientific) with a final volume of 1100 μL. Each reaction contained sodium phosphate buffer, liver microsomes (1 mg/mL), and test compound resulting in a final concentration of 3 μM. Following a 5 min pre-incubation of drug and microsomes in a 37° C. shaking incubator, the reaction was initiated with NADPH (110 μL). Aliquots (100 μL) were removed in duplicate at 0, 5, 10, 15, and […] and quenched in cold acetonitrile (200 μL). The aliquots were centrifuged at 12,000 g for 5 min and the supernatant removed and placed in an LCMS vial. […] A no NADPH negative control with test and control compound was conducted in singlet (150 μL) at the longest time point. Controls were processed and analyzed like test compounds.
An Agilent Technologies LCMS system consisting of an Agilent 6120 quadrupole mass spectrometer equipped with an Agilent 1200 binary pump, degasser, and auto sampler (Santa Clara, Calif.). The analytical column used for analysis was an XDB-Eclipse Plus C18 column (4.6 mm×150 mm column; Agilent Technologies). The mobile phase for the HPLC was 50 mM ammonium formate buffer, pH 3.5 (A) and acetonitrile (B). The samples were analyzed using the following 8-minute method: A linear gradient from 10% B to 95% B over for 5 minutes, with a 3 min hold at 95%. An equilibration at 10% B for 5 min was conducted after each run. Sample injection volume was 10 μL and the flow rate was 1.0 mL/min. Single ion monitoring of the mass in positive mode was conducted the molecular weight for each compound. Each time point was assessed on the LCMS and the area, based on the extracted ion, was manually integrated.
Calculations: The depletion of the compound was monitored as a function of time, and the area under the curve was manually integrated. The relative percent remaining was calculated using: Relative % remaining=AreaTime/AreaTime=0*100. The relative percentages for the duplicate runs were averaged and the standard deviations were calculated. Metabolism data averaged duplicates.

[4] = Mouse liver microsomes assay; type: in vitro ADME; settings: for Relative % remaining, mouse liver microsomes: 3 μM compound, 1 mg/mL microsomes
Experimental: Controls were processed and analyzed like test compounds. […] The relative percent remaining was calculated using: Relative % remaining=[…]=0*100. […] Metabolism data averaged duplicates.

CYP2D6, sequence (P10635 whole entry): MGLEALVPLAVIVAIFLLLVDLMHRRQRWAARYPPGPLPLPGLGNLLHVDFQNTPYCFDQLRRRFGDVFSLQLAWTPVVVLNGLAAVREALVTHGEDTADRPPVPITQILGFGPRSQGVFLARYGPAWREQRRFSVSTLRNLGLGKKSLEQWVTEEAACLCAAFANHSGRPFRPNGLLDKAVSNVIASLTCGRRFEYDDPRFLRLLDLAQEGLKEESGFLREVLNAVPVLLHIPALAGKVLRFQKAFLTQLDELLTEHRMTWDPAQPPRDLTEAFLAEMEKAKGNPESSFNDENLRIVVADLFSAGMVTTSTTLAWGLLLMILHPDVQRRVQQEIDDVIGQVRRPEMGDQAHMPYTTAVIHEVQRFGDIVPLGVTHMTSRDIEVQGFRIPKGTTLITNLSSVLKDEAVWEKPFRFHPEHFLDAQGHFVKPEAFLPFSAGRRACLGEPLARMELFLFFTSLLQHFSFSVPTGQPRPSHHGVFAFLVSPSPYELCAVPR
CYP3A4, sequence (P08684 whole entry): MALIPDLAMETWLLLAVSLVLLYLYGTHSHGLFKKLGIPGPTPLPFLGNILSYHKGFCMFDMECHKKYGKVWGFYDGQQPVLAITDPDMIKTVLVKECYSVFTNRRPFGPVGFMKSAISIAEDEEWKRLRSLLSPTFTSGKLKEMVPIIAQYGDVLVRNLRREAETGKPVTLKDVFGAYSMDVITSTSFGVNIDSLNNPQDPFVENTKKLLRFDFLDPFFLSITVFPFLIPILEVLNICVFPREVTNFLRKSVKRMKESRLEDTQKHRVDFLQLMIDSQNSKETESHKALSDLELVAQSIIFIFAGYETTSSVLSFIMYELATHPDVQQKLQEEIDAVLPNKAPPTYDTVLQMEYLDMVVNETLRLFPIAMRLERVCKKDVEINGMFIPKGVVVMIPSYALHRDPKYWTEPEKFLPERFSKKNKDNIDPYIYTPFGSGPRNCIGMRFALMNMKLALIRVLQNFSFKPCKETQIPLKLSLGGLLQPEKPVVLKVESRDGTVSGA

## c1cc(CN2CCCNCCNCCCNCC2)ccc1CN1CCCNCCNCCCNCC1 [AMD3100]
HIV
  Passages required to develop resistance: 63 passages

## Cc1cn([C@H]2C[C@H](N=[N+]=[N-])[C@@H](CO)O2)c(=O)[nH]c1=O [AZT]
HIV
  Passages required to develop resistance: 11 passages

## NCCCCN(C[C@H]1CN(CC[C@H](NC(=O)C2CCC(F)(F)CC2)c2ccccc2)CCN1)[C@H]1CCCc2cccnc21 [Compound 2]
HIV-1IIIB; Table 3
  pIC50: 7.15
  IC90: 680 nM
HIV-1IIIB; Table 1, read-out: HIV MAGI EC50 HIVIIIB
  pEC50: 7.15
HIV-1BaL; Table 3
  pIC50: 5.58
  IC90: 29100 nM
HIV-1BaL; Table 1, read-out: HIV MAGI EC50 HIVBa-L
  pEC50: 5.58
MAGI [1]
  MAGI HIV-1IIIB TC50: >10000 nM
MAGI [2]
  MAGI HIV-1BaL TC90: 33100 nM
CYP2D6; Table 1
  pIC50: < 4.70
CYP2D6; preliminary ADME screening
  Inhibition of cytochrome P450 isoform 2D6 (in words): does not inhibit
CYP3A4; Table 1
  pIC50: < 4.70
CYP3A4; preliminary ADME screening
  Inhibition of cytochrome P450 isoform 3A4 (in words): does not inhibit
[3]
  Stability in human liver microsomes (in words): good stability
[3]; both, 10 min, 3 μM, pH 7.4
  Relative % remaining, human liver microsomes: 65 ± 8.6%
[3]; both, 0.5 h, 3 μM, pH 7.4
  Relative % remaining, human liver microsomes: 78 ± 2.2%
[3]; both, human, microsomes, 10 min, 3 μM, pH 7.4
  HLM: 65% @ 10 min
[4]
  Stability in mouse liver microsomes (in words): good stability
[4]; 10 min
  Relative % remaining, mouse liver microsomes: 95 ± 7.2%
[4]; 30 min
  Relative % remaining, mouse liver microsomes: 96 ± 6.5%
[4]; @ 10 min, Table 1
  MLM: 95% @ 10 min

## Cc1ccc(-c2ccc3c(c2)C=C(C(=O)Nc2ccc(C[N+](C)(C)C4CCOCC4)cc2)CCC3)cc1.[Cl-] [TAK-779]
HIV
  Passages required to develop resistance: 41 passages

## Cc1ccnc2c1NC(=O)c1cccnc1N2C1CC1 [nevirapine]
HIV
  Passages required to develop resistance: 2 passages
